From article PMC4977052, “On the Utility of ToxCast™ and ToxPi as Methods for Identifying New Obesogens” (Environmental Health Perspectives, 2016)
pEC50: −log10 of the molar value. Where two headings read alike, the source gives them in different places.

Tests used:
GAL4-mPPARγ = molecular target: T1, GAL4-mPPARγ (Mus musculus, UniProt P37238); assay: GAL4-mPPARγ activation, transient transfection luciferase reporter in COS7 cells; format: cell-based; details: for Activation of GAL4-PPARγ (text): COS7, 100 μM through 0.137 μM; for pEC50: COS7, ligands 24 hr, nonlinear regression variable slope, spirodiclofen constrained at top dose, read-out: PPARγ agonists: EC50, Fig 1A / Fig 4A; for PPARγ agonists: EC10, Fig 1A / Fig 4A: COS7, computed from EC50 in GraphPad Quick Calc
T1 construct: expressed in transfected cells; host or cells: COS7
T1 sequence (P37238 with tags, fused parts or gaps limits assumed): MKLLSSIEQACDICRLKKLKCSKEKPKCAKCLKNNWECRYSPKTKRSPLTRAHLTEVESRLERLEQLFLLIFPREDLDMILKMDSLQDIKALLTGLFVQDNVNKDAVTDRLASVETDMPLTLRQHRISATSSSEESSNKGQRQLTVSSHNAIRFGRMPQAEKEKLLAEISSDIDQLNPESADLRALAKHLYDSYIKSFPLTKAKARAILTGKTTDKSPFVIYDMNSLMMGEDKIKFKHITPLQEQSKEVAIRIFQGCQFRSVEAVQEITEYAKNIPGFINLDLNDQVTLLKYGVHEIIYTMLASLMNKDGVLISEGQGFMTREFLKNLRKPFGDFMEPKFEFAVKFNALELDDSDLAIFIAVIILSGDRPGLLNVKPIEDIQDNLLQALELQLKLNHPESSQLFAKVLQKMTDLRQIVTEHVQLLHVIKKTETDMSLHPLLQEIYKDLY

PPARγ [1] = details: cited from earlier work; for AC50: PPARγ, NA = not active; for PPARγ agonists: EC10, NCGC: AC10, ToxCast 2014 release; for pEC50: gain AC50, ToxCast 2014 release, read-out: PPARγ agonists: EC50, NCGC
COS7 cells = assay: Cytotoxicity in transfected COS7 cells measured as decreased β-galactosidase activity
Method: pCMX-Gal4, pCMX-Gal4-mPPARγ, and pCMX-Gal4-hRXRα were previously described ([Grün et al. 2006]). Transient transfections were performed in COS7 cells as described ([Chamorro-García et al. 2012]). Briefly, COS7 cells were seeded at 15,000 cells per well in 96-well tissue culture plates in 10% calf bovine serum. The following day, cells were transfected in Opti-MEM at ~ 90% confluency. One microgram of CMX-GAL4 effector plasmid was co-transfected with 5 μg tk-(MH100)4-luciferase reporter and 5 μg of CMX-β-galactosidase transfection control plasmids in Opti-MEM® using Lipofectamine® 2000 reagent (Invitrogen™ Life Technologies, Carlsbad, CA, USA), following the manufacturer’s recommended protocol. All chemicals were solvated in dimethyl sulfoxide (DMSO). After overnight incubation, the medium was replaced with Dulbecco’s Modified Eagle Medium (DMEM; HyClone, Logan, UT, USA), 10% resin charcoal stripped fetal bovine serum (FBS) plus ligands at concentrations indicated in the figure legends for an additional 24 hr. DMSO concentration was maintained at 0.05% across all chemical treatments. Cells were lysed and assayed for luciferase and β-galactosidase activity as previously described ([Forman et al. 1995]). All transfections were performed in triplicate and reproduced in multiple experiments. Data are reported as fold induction or reduction over vehicle ([…]) controls ± SEM (standard error of the mean) using standard propagation of error ([Bevington and Robinson 2003]). […] The EC50, EC10, IC50, and IC10 values from NCGC and ToxCast™ are reported from gain AC50 and AC10 values in the ToxCast™ 2014 release ([Filer et al. 2014]).
Figure 1 ToxCast™ Chemical Activity on PPARγ. The ability of a graded dose series of ToxCast™ chemicals to (A) activate or (B) antagonize GAL4-mPPARγ was tested in transiently transfected COS7 cells. (A, B) Data points are averages of triplicate transfections (three biological replicates). […] Data are depicted as (A) fold induction or (B) reduction over vehicle (0.05% DMSO) controls ± SEM. (A) ToxCast™ chemicals were tested in 3-fold serial dilutions from 100 μM through 0.137 μM, with the final data point being 0.05% DMSO. Rosiglitazone serves as a positive control activator. (B) ToxCast™ chemicals were tested in 3-fold serial dilutions from 100 μM, in competition with 50 nM rosiglitazone (Rosi). […] (C) EC50, EC10, IC50, and IC10 values calculated from A and B are reported and compared to commercial assays (see Figure S1). Note: ATG, Attagene GAL-PPARγ activation assay; NCGC, GeneBLAzer® agonist (EC values) or antagonist (IC values) assays. Triphenyltin was previously published ([Kanayama et al. 2005]).

PPARγ [2] = details: cited from earlier work; for AC50: PPARγ, NA = not active; for PPARγ agonists: EC10, ATG: AC10, ToxCast 2014 release; for pEC50: gain AC50, ToxCast 2014 release, read-out: PPARγ agonists: EC50, ATG
[3] = ref Filer et al. 2014, read-out: NCGC Agonist AC50, 2014 Release
[4] = ref Filer et al. 2014, read-out: ATG Agonist AC50, 2014 Release
[5] = ref Knudsen et al. 2011, read-out: ATG Agonist AC50, 2011 Release
[6] = Cos-7 transient transfection, PPARγ activation or antagonism assays (Table 1, Table S6)
[7] = ref Knudsen et al. 2011, read-out: NCGC Agonist AC50, 2011 Release

For `O=[N+]([O-])c1cc(C(F)(F)F)c(Cl)c([N+](=O)[O-])c1Nc1ncc(C(F)(F)F)cc1Cl` [Fluazinam], the “Activation of GAL4-PPARγ (text)” value (GAL4-mPPARγ) is listed as “did not activate PPARγ”, the AC50 (PPARγ [1]; [3]) is listed as 70 nM and the “Concentration at which cytotoxicity (decreased β-galactosidase activity) was observed” value (COS7 cells; transfected COS7 cells, 24 hr) is listed as 100 µM. The AC50 (PPARγ [2]; [4]) was 1200 nM and the AC50 (PPARγ [2]; [5]) was 510 nM.
For `Fc1ccc(Oc2ccnc3cc(Cl)cc(Cl)c23)cc1` [Quinoxyfen], the “Activation COS7 (result in words), ToxCast PPARγ list” value (“Activation COS7 … ToxCast PPARγ list” for short) (GAL4-mPPARγ) was “Inactive”, the “Activation of GAL4-PPARγ (text)” value (GAL4-mPPARγ) was “weakly active at 100 μM and 33 μM doses” and the “Activation of GAL4-PPARγ (text)” value (GAL4-mPPARγ; listed as quinoxyfen) was “activated PPARγ”. The pEC50 (GAL4-mPPARγ) was 4.48, the “PPARγ agonists: EC10, Fig 1A / Fig 4A” value (GAL4-mPPARγ) was 14240 nM and the AC50 (GAL4-mPPARγ; Cos-7 transient transfection) was 33400 nM. The “Activation COS7 … ToxCast PPARγ list” value (GAL4-mPPARγ; [6]) was “PPARγ Activator”, the “Activation COS7 (result in words), ToxPi chemicals” value (GAL4-mPPARγ; Cos-7 transient transfection, PPARγ or RXRα activation assays (Table 2)) was “PPARγ activator” and the “PPARγ agonists: EC10, NCGC” value (PPARγ [1]; ref Filer et al. 2014) was 2440 nM. For the same molecule, the AC50 (PPARγ [1]; [3]) was 40600 nM, the AC50 (PPARγ [1]; [7]) was 6700 nM and the pEC50 (PPARγ [1]; ref Filer et al. 2014) was 4.39. The “PPARγ agonists: EC10, ATG” value (PPARγ [2]; ref Filer et al. 2014) was 3980 nM, the AC50 (PPARγ [2]; [4]) was 5100 nM and the AC50 (PPARγ [2]; [5]) was 6600 nM. The pEC50 (PPARγ [2]; ref Filer et al. 2014) was 5.29.
For `CCC(C)(C)C(=O)OC1=C(c2ccc(Cl)cc2Cl)C(=O)OC12CCCCC2` [Spirodiclofen], the “Activation of GAL4-PPARγ (text)” value (GAL4-mPPARγ) was “activated GAL-PPARγ”, the pEC50 (GAL4-mPPARγ) was 4.89 and the “PPARγ agonists: EC10, Fig 1A / Fig 4A” value (GAL4-mPPARγ) was 7270 nM. The “Activation COS7 … ToxCast PPARγ list” value (GAL4-mPPARγ; [6]) was “PPARγ activator”, the AC50 (GAL4-mPPARγ; read-out: Activation AC50 (PPARγ activators), Cos-7 transient transfection) was 12800 nM and the “PPARγ agonists: EC10, NCGC” value (PPARγ [1]; ref Filer et al. 2014) was 170 nM. For the same molecule, the AC50 (PPARγ [1]; [3]) was 1600 nM, the AC50 (PPARγ [1]; [7]) was 2800 nM and the pEC50 (PPARγ [1]; ref Filer et al. 2014) was 5.79. The “Concentration at which cytotoxicity (decreased β-galactosidase activity) was observed” value (COS7 cells; transfected COS7 cells, 24 hr) was 100 µM, the “PPARγ agonists: EC10, ATG” value (PPARγ [2]; ref Filer et al. 2014) was 100 nM and the AC50 (PPARγ [2]; [4]) was 1900 nM. The AC50 (PPARγ [2]; [5]) was 3600 nM and the pEC50 (PPARγ [2]; ref Filer et al. 2014) was 5.73.
In the case of `CCC(C)(NC(=O)c1cc(Cl)c(C)c(Cl)c1)C(=O)CCl` (stereo not drawn) [Zoxamide], the “Activation of GAL4-PPARγ (text)” value (GAL4-mPPARγ) was “activated GAL-PPARγ”, the pEC50 (GAL4-mPPARγ) was 5.88 and the “PPARγ agonists: EC10, Fig 1A / Fig 4A” value (GAL4-mPPARγ) was 310 nM. The AC50 (GAL4-mPPARγ; Cos-7 transient transfection) was 1310 nM, the “Activation COS7 … ToxCast PPARγ list” value (GAL4-mPPARγ; [6]) was “PPARγ activator” and the “Concentration at which cytotoxicity (decreased β-galactosidase activity) was observed” value (COS7 cells; African green monkey, 24 h) was at least 10 µM. The “PPARγ agonists: EC10, ATG” value (PPARγ [2]; ref Filer et al. 2014) was 180 nM, the AC50 (PPARγ [2]; [4]) was 1300 nM and the AC50 (PPARγ [2]; [5]) was 1500 nM. For the same molecule, the pEC50 (PPARγ [2]; ref Filer et al. 2014) was 5.90.
